Biological target: T1, KCNT1 (KNa1.1, Slack) (Homo sapiens, UniProt Q5JUK3)
T1 construct: expressed in transfected cells; host or cells: HEK-TREX (tetracycline-inducible HEK cell line)
T1 sequence (Q5JUK3 1-1230): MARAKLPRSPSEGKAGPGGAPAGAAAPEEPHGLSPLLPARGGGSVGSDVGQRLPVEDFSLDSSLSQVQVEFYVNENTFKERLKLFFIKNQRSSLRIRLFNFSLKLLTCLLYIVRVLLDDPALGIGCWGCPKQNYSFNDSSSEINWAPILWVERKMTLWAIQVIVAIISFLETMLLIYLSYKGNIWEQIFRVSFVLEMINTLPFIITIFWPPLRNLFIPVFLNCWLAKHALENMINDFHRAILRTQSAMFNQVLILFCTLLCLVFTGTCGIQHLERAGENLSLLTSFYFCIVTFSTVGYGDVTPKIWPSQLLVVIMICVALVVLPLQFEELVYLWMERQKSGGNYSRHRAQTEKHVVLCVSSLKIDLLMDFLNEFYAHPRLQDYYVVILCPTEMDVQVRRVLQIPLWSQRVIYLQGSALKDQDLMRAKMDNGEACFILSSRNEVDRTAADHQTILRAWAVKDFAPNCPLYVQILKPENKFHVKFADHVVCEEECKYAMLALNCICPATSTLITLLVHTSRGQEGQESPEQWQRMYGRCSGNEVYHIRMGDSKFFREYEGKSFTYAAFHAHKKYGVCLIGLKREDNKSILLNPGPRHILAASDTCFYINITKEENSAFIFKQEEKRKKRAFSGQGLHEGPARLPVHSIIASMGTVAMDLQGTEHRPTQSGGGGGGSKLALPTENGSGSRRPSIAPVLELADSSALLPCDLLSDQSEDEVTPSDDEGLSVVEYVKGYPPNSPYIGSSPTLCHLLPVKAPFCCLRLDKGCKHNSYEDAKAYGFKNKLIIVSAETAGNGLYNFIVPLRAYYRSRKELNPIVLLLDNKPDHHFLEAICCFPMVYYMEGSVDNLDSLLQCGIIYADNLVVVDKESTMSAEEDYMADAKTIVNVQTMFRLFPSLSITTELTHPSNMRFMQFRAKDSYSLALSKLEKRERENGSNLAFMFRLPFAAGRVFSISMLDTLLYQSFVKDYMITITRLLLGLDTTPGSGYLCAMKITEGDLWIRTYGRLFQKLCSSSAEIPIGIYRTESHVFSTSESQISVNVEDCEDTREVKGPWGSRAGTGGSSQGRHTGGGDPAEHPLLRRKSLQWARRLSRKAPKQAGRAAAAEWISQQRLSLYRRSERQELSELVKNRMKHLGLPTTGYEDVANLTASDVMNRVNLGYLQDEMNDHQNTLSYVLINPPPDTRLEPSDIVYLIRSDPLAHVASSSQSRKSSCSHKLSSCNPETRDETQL
Test: KCNT1-WT-Basal patch clamp assay (SyncroPatch 384PE, HEK-TREX inducible cell line)
Assay type: cell-based
Details: tetracycline inducible HEK-TREX cells; perforated patch; holding -80 mV, 100 ms step to 0 mV; room temperature; read-out: KCNT1 WB IC50
Method: KCNT1-WT-Basal—Patch Clamp Assay
Inhibition of KCNT1 (KNa1.1, Slack) was evaluated using a tetracycline inducible cell line (HEK-TREX). Currents were recorded using the SyncroPatch 384PE automated, patch clamp system. Pulse generation and data collection were performed with PatchController384 V1.3.0 and DataController384 V1.2.1 (Nanion Technologies). The access resistance and apparent membrane capacitance were estimated using built-in protocols. Current were recorded in perforated patch mode (10 μM escin) from a population of cells. The cells were lifted, triturated, and resuspended at 800,000 cells/ml. The cells were allowed to recover in the cell hotel prior to experimentation. Currents were recorded at room temperature. The external solution contained the following (in mM): NaCl 105, NMDG 40, KCl 4, MgCl2 1, CaCl2 5 and HEPES 10 (pH=7.4, Osmolarity ˜300 mOsm). The extracellular solution was used as the wash, reference and compound delivery solution. The internal solution contained the following (in mM): NaCl 70, KF 70, KCl 10, EGTA 5, HEPES 5 and Escin 0.01 (pH=7.2, Osmolarity ˜295 mOsm). Escin is made at a 5 mM stock in water, aliquoted, and stored at −20° C. The compound plate was created at 2× concentrated in the extracellular solution. The compound was diluted to 1:2 when added to the recording well. The amount of DMSO in the extracellular solution was held constant at the level used for the highest tested concentration. A holding potential of −80 mV with a 100 ms step to 0 mV was used. Mean current was measured during the step to 0 mV. […] The average mean current from 3 sweeps was calculated and the % inhibition of each compound was calculated. The % Inhibition as a function of the compound concentration was fit with a Hill equation to derive IC50, slope, min and max parameters. If KCNT1 inhibition was less than 50% at the highest tested concentration or if an IC50 could not be calculated, then a percent inhibition was reported in place of the IC50.

IC50 [µM] | SMILES
≥ 20 | O=C(N[C@H]1CCc2cc(Cl)ccc21)c1ccc(F)cc1 (single isomer, unassigned) [Compound II-41]
1 to 20 | CS(=O)(=O)c1ccc(C(=O)N[C@@H]2CCc3cc(Cl)ccc32)c(F)c1 [Compound II-36]
≤ 1 | NS(=O)(=O)c1ccc(C(=O)N[C@H]2CCCc3cc(Cl)ccc32)s1 (single isomer, unassigned) [Compound I-32]
≤ 1 | O=C(N[C@@H]1CCc2cc(Cl)ccc21)c1cccc(C(F)(F)F)c1O [Compound III-10]
≤ 1 | CC(=O)Nc1cccc(C(=O)N[C@@H]2CCc3cc(Cl)ccc32)c1O [Compound III-16]
≤ 1 | CNS(=O)(=O)Nc1ccc(C(=O)N[C@@H]2CCc3cc(Cl)ccc32)cc1 [Compound II-32]
≥ 20 | CN(c1ccc(C(=O)NC2CCc3cc(Cl)ccc32)cc1)S(C)(=O)=O (single isomer, unassigned) [Compound II-1, N-(5-chloroindan-1-yl)-4-[methyl(methylsulfonyl)amino]benzamide]
≥ 20 | CCS(=O)(=O)Nc1ccc(C(=O)N[C@H]2CCc3cc(Cl)ccc32)cc1 [Compound II-17, N-[(1S)-5-chloroindan-1-yl]-4-(ethylsulfonylamino)benzamide]
≥ 20 | CS(=O)(=O)c1ccc(C(=O)N[C@@H]2CCCc3cc(Cl)ccc32)s1 (single isomer, unassigned) [Compound I-25]
1 to 20 | O=C(N[C@@H]1CCc2cc(Cl)ccc21)c1ccc(NS(=O)(=O)C2CC2)cc1 [Compound II-11, N-[(1R)-5-chloroindan-1-yl]-4-(cyclopropylsulfonylamino)benzamide]
1 to 20 | CCS(=O)(=O)N(C)c1ccc(C(=O)N[C@H]2CCc3cc(Cl)ccc32)cc1 [Compound II-19]
≤ 1 | CN(C)S(=O)(=O)c1ccc(C(=O)N[C@@H]2CCc3cc(Cl)ccc32)cc1 [Compound II-28]
1 to 20 | NS(=O)(=O)c1csc(C(=O)N[C@@H]2CCc3cc(Cl)ccc32)c1 [Compound I-5]
≤ 1 | CN1CCN(S(=O)(=O)c2ccc(C(=O)N[C@@H]3CCc4cc(Cl)ccc43)s2)CC1 [Compound I-42]
≤ 1 | O=C(N[C@@H]1CCc2cc(Cl)ccc21)c1cnc(Cl)s1 [Compound I-37]
1 to 20 | CN(c1ccc(C(=O)N[C@H]2CCc3cc(Cl)ccc32)cc1)S(=O)(=O)C(F)(F)F [Compound II-21]
≤ 1 | COc1ccc(C(=O)NC2CCc3cc(Cl)ccc32)c(O)c1 (single isomer, unassigned) [Compound III-2, N-(5-chloroindan-1-yl)-2-hydroxy-4-methoxy-benzamide]
≤ 1 | O=C(N[C@@H]1CCc2cc(Cl)ccc21)c1ccc(S(=O)(=O)N2CCC2)s1 [Compound I-19]
> 20 | COc1ccc(C(=O)NC2CCc3cc(Cl)ccc32)c(O)c1 (single isomer, unassigned) [Compound III-1, N-(5-chloroindan-1-yl)-2-hydroxy-4-methoxy-benzamide]
≥ 20 | NC(=O)c1ccc(C(=O)N[C@H]2CCCc3cc(Cl)ccc32)s1 (single isomer, unassigned) [Compound I-30]
1 to 20 | CS(=O)(=O)N(CCO)c1ccc(C(=O)N[C@@H]2CCc3cc(Cl)ccc32)cc1 [Compound II-47]
> 20 | CS(=O)(=O)Nc1ccc(C(=O)NC2CCc3cc(F)ccc32)cc1 (single isomer, unassigned) [Compound II-59, N-[5-fluoroindan-1-yl]-4-(methanesulfonamido)benzamide]
1 to 20 | Cc1cc(C(=O)N[C@@H]2CCc3cc(Cl)ccc32)ccc1S(C)(=O)=O [Compound II-48]
≤ 1 | COc1cccc(C(=O)N[C@@H]2CCc3cc(Cl)ccc32)c1O [Compound III-14]
≤ 1 | O=C(N[C@@H]1CCc2cc(Cl)ccc21)c1ccc(F)cc1O [Compound III-4]

— patent US20220280476A1, “KCNT1 INHIBITORS AND METHODS OF USE” (Praxis Precision Medicines, Inc., priority 2019, published 2022)
